Molecules are shown by their SMILES.

One experiment has as its target T1, purified human HDAC6 (Homo sapiens, UniProt Q9UBN7).
T1 construct: purchased BPS Bioscience 5006
T1 sequence (Q9UBN7 1-1215): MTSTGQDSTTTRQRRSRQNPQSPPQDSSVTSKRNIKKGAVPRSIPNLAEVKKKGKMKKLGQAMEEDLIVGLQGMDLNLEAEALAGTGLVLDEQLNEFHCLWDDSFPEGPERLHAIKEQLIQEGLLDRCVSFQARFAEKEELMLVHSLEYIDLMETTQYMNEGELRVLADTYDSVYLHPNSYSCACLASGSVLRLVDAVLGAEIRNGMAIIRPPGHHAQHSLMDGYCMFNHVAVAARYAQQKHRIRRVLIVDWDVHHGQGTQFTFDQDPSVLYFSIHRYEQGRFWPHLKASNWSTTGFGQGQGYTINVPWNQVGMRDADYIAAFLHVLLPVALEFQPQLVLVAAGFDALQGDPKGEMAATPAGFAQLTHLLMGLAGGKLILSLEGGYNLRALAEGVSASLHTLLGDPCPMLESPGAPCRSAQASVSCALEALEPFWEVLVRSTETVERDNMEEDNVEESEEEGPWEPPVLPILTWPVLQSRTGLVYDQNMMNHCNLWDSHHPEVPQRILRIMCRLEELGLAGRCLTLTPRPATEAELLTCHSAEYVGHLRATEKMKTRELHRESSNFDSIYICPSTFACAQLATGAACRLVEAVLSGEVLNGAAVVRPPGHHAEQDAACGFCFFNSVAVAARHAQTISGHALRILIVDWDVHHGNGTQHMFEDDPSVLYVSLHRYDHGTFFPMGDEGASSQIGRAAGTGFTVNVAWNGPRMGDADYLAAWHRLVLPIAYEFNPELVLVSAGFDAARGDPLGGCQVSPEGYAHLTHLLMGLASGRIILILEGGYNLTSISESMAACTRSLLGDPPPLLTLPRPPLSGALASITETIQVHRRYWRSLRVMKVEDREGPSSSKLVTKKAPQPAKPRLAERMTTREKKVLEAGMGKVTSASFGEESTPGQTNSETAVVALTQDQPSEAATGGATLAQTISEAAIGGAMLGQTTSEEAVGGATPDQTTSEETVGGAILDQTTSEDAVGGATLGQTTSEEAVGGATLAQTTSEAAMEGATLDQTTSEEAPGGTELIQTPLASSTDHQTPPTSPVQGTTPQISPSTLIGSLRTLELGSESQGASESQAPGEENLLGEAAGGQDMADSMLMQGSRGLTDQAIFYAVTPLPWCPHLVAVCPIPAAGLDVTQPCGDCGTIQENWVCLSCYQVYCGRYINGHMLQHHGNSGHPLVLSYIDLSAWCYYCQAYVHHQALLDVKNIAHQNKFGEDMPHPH
Put plainly: HDAC6 Enzyme Assay. As to conditions: compound concentration 0.37 μM, read-out: Percent Inhibition. The class given is biochemical. In a few lines:
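Readout is AMC fluorescence (Ex 340 nm, Em 460 nm) after trypsin cleavage of the deacetylated Ac-Arg-Gly-Lys(Ac)-AMC product. Reaction: purified human HDAC6, compound or vehicle, 1 hour, 30° C, quenched by trichostatin A. Single-concentration percent inhibition or IC50 calculated versus DMSO-treated samples.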
In the case of `O=C(NO)c1ccc2c(=O)n(Cc3ccc(C(F)(F)F)cc3)c(-c3ccc4ccccc4c3)nc2c1` [Compound I-85, N-hydroxy-2-(2-naphthyl)-4-oxo-3-[4-(trifluoromethyl)benzyl]-3,4-dihydroquinazoline-7-carboxamide], the inhibition at 0.37 µM came to 72.6%.
On the same count and under the same terms, the figure for `CCC(C)c1nc2cc(C(=O)NO)ccc2c(=O)n1Cc1ccc(C(F)(F)F)cc1` (centres unmarked) [Compound I-100, 2-sec-butyl-N-hydroxy-4-oxo-3-[4-(trifluoromethyl)benzyl]-3,4-dihydroquinazoline-7-carboxamide] is 90.6%.
The same measure, in the same setting: under `O=C(NO)c1ccc2ccn(CCC(c3ccc(Cl)cc3)C3CCNCC3)c(=O)c2c1` (centres unmarked) [Compound I-103, 2-[3-(4-chlorophenyl)-3-piperidin-4-ylpropyl]-N-hydroxy-1-oxo-1,2-dihydroisoquinoline-7-carboxamide] stands 100%; under `O=C(NO)c1ccc2c(=O)n(Cc3ccc(C(F)(F)F)cc3)c(C3CCCC3)nc2c1` [Compound I-106, 2-cyclopentyl-N-hydroxy-4-oxo-3-[4-(trifluoromethyl)benzyl]-3,4-dihydroquinazoline-7-carboxamide], 78.5%.

The same experiment, now with this note: compound concentration 0.412 μM, read-out: Percent Inhibition.
On to `CCN(CC)Cc1nc2cc(C(=O)NO)ccc2c(=O)[nH]1` [Compound I-84, 2-[(diethylamino)methyl]-N-hydroxy-4-oxo-3,4-dihydroquinazoline-7-carboxamide], for which the inhibition at 0.412 µM worked out at 60.5%.
On to `O=C(NO)c1ccc2c(=O)n(-c3ccccc3)c(NCc3ccc(Cl)cc3)nc2c1` [Compound I-86, 2-[(4-chlorobenzyl)amino]-N-hydroxy-4-oxo-3-phenyl-3,4-dihydroquinazoline-7-carboxamide], for which the inhibition at 0.412 µM worked out at 74.2%.
Regarding `CC(C)(C)c1ccc(Cn2cnc3cc(C(=O)NO)ccc3c2=O)cc1` [Compound I-87, 3-(4-tert-butylbenzyl)-N-hydroxy-4-oxo-3,4-dihydroquinazoline-7-carboxamide], the inhibition at 0.412 µM is 91%.
Still for that read-out and setting: under `CC1(C)CCC(C)(C)c2cc(Cn3ccc4ccc(C(=O)NO)cc4c3=O)ccc21` [Compound I-88, N-hydroxy-1-oxo-2-[(5,5,8,8-tetramethyl-5,6,7,8-tetrahydronaphthalen-2-yl)methyl]-1,2-dihydroisoquinoline-7-carboxamide] stands 90%.
As for `CC(C)(C)OC(=O)N(CCCn1ccc2ccc(C(=O)NO)cc2c1=O)c1ccncc1` [Compound I-89, tert-butyl {3-[7-[(hydroxyamino)carbonyl]-1-oxoisoquinolin-2(1H)-yl]propyl}pyridin-4-ylcarbamate], the inhibition at 0.412 µM turned out to be 95.6%.
Still for that read-out and setting: under `O=C(NO)c1ccc2ccn(CCCOc3ccc(-c4csnn4)cc3)c(=O)c2c1` [Compound I-90, N-hydroxy-1-oxo-2-{3-[4-(1,2,3-thiadiazol-4-yl)phenoxy]propyl}-1,2-dihydroisoquinoline-7-carboxamide] stands 97.7%; under `O=C(NO)c1ccc2ccn(CCOc3cc(C(F)(F)F)cc(C(F)(F)F)c3)c(=O)c2c1` [Compound I-91, 2-{2-[3,5-bis(trifluoromethyl)phenoxy]ethyl}-N-hydroxy-1-oxo-1,2-dihydroisoquinoline-7-carboxamide], 86.9%; under `O=C(NO)c1ccc2c(=O)[nH]c(CNCc3ccc(Cl)cc3)nc2c1` [Compound I-92, 2-{[(4-chlorobenzyl)amino]methyl}-N-hydroxy-4-oxo-3,4-dihydroquinazoline-7-carboxamide], 90.9%.
The same measure, in the same setting: the figure for `CC(C)(C)OC(=O)N1CCC(C)(C(=O)Nc2cccc(Cn3ccc4ccc(C(=O)NO)cc4c3=O)c2)CC1` [Compound I-93, tert-butyl 4-{[(3-{[7-[(hydroxyamino)carbonyl]-1-oxoisoquinolin-2(1H)-yl]methyl}phenyl)amino]carbonyl}-4-methylpiperidine-1-carboxylate] is 90.1%.
Turning to `CCCCC(CC)Cn1ccc2ccc(C(=O)NO)cc2c1=O` (centres unmarked) [Compound I-94, 2-(2-ethylhexyl)-N-hydroxy-1-oxo-1,2-dihydroisoquinoline-7-carboxamide], the inhibition at 0.412 µM was 93.5%.
Same read-out and setting: under `O=C(NO)c1ccc2ccn(CCCc3c[nH]c4ccccc34)c(=O)c2c1` [Compound I-95, N-hydroxy-2-[3-(1H-indol-3-yl)propyl]-1-oxo-1,2-dihydroisoquinoline-7-carboxamide] stands 98.1%; under `O=C(NO)c1ccc2ccn(CC(c3ccccc3)C3CCCCC3)c(=O)c2c1` (centres unmarked) [Compound I-96, 2-(2-cyclohexyl-2-phenylethyl)-N-hydroxy-1-oxo-1,2-dihydroisoquinoline-7-carboxamide], 80.9%.
Consider `COc1ccc(NCCn2ccc3ccc(C(=O)NO)cc3c2=O)cc1` [Compound I-97, N-hydroxy-2-{2-[(4-methoxyphenyl)amino]ethyl}-1-oxo-1,2-dihydroisoquinoline-7-carboxamide], for which the inhibition at 0.412 µM was found to be 79.1%.
Still for that read-out and setting: the figure for `O=C(NO)c1ccc2ccn(Cc3cccc(Oc4ccc(F)cc4)c3)c(=O)c2c1` [Compound I-98, 2-[3-(4-fluorophenoxy)benzyl]-N-hydroxy-1-oxo-1,2-dihydroisoquinoline-7-carboxamide] is 91%; for `O=C(NO)c1ccc2ccn(CCOc3cc(Cl)cc(Cl)c3)c(=O)c2c1` [Compound I-99, 2-[2-(3,5-dichlorophenoxy)ethyl]-N-hydroxy-1-oxo-1,2-dihydroisoquinoline-7-carboxamide] it is 93%; for `COc1cc(OC)cc(OCCn2ccc3ccc(C(=O)NO)cc3c2=O)c1` [Compound I-101, 2-[2-(3,5-dimethoxyphenoxy)ethyl]-N-hydroxy-1-oxo-1,2-dihydroisoquinoline-7-carboxamide] it is 95.7%.
The same measure, in the same setting: under `O=C(NO)c1ccc2ccn(Cc3c(F)cc(F)cc3F)c(=O)c2c1` [Compound I-102, N-hydroxy-1-oxo-2-(2,4,6-trifluorobenzyl)-1,2-dihydroisoquinoline-7-carboxamide] stands 94.3%; under `O=C(NO)c1ccc2ncn(CCc3ccccn3)c(=O)c2c1` [Compound I-104, N-hydroxy-4-oxo-3-(2-pyridin-2-ylethyl)-3,4-dihydroquinazoline-6-carboxamide], 82.5%; under `O=C(NO)c1ccc2ccn(C3CCCC3)c(=O)c2c1` [Compound I-105, 2-cyclopentyl-N-hydroxy-1-oxo-1,2-dihydroisoquinoline-7-carboxamide], 86.5%.
With `Cc1cccc(OCc2nc3cc(C(=O)NO)ccc3c(=O)[nH]2)c1` [Compound I-107, N-hydroxy-2-[(3-methylphenoxy)methyl]-4-oxo-3,4-dihydroquinazoline-7-carboxamide], the inhibition at 0.412 µM is 85.2%.
For `O=C(NO)c1ccc2ccn(CCNc3cccc(-n4cccn4)c3)c(=O)c2c1` [Compound I-108, N-hydroxy-1-oxo-2-(2-{[3-(1H-pyrazol-1-yl)phenyl]amino}ethyl)-1,2-dihydroisoquinoline-7-carboxamide], the inhibition at 0.412 µM worked out at 91.4%.
Same read-out and setting: the figure for `O=C(NO)c1ccc2ccn(Cc3cccc(F)c3)c(=O)c2c1` [Compound I-109, 2-(3-fluorobenzyl)-N-hydroxy-1-oxo-1,2-dihydroisoquinoline-7-carboxamide] is 95.9%.

These data come from patent US8765773B2, “Substituted hydroxamic acids and uses thereof” (Millennium Pharmaceuticals, Inc., priority 2010, dated 2014).
